Tests used:
Format in all cases: biochemical
[1] = system: LuxSit (de novo designed luciferase, SEQ ID NO:1) variant Y14E; test: Michaelis-Menten kinetics of LuxSit Y14E with DTZ; conditions: substrate DTZ; mean (95% CI), n = 3; Tris pH 8.0
From the text: (§1) Synthetic genes and oligonucleotides were purchased from Integrated DNA Technologies or GenScript. The synthetic gene was inserted between NdeI and XhoI sites of a pET29b+ vector, containing an N-terminal hexahistidine tag followed by a TEV protease cleavage site and a C-terminal stop codon. Restriction endonucleases, Q5 PCR polymerase, and T4 ligase were purchased from NEB. Plasmid DNA, PCR products, or digested fragments were purified by Qiagen DNA purification kits. DNA sequences were analyzed by Genewiz. Coelenterazine (CTZ) was purchased from Gold Biotechnology. Diphenylterazine (DTZ), pyridyl diphenylterazine (8pyDTZ), and Furimazine (FRZ) were purchased from MedChemExpress. […] DNA and protein concentrations were determined by a NanoDrop™ small-volume 8 channel UV/vis spectrometer. […] All luminescence measurements were acquired by a Biotek Synergy Neo2T™ Multi-Mode Plate Reader. To convert relative arbitrary unit (RLU) to the number of photons, Neo2 plate reader was calibrated by determining the chemiluminescence of luminol with known quantum yield in the presence of horseradish peroxidase and hydrogen peroxide in K2CO3 aqueous solution as previously described^45. SDS PAGE and luminescence images were captured by a Bio-Rad ChemiDocT™ XRS+. Images were analyzed using the Fiji image analysis software. […]

[2] = system: LuxSit (de novo designed luciferase, SEQ ID NO:1) variant A96I; test: Michaelis-Menten kinetics of LuxSit A96I with DTZ; conditions: substrate DTZ; mean (95% CI), n = 3; Tris pH 8.0
From the text: as §1

[3] = system: LuxSit (de novo designed luciferase, SEQ ID NO:1) variant R60C; test: Michaelis-Menten kinetics of LuxSit R60C with DTZ; conditions: substrate DTZ; mean (95% CI), n = 3; Tris pH 8.0
From the text: as §1

[4] = system: LuxSit-f (de novo designed luciferase; LuxSit variant A96M/M110V, 60R/96M/98H/110V; SEQ ID NO:3); test: Michaelis-Menten kinetics of LuxSit-f with DTZ; conditions: substrate DTZ; for Km / Vmax: Tris pH 8.0
From the text: (§2) Synthetic genes and oligonucleotides were purchased from Integrated DNA Technologies or GenScript. The synthetic gene was inserted between NdeI and XhoI sites of a pET29b+ vector, containing an N-terminal hexahistidine tag followed by a TEV protease cleavage site and a C-terminal stop codon. Restriction endonucleases, Q5 PCR polymerase, and T4 ligase were purchased from NEB. Plasmid DNA, PCR products, or digested fragments were purified by Qiagen DNA purification kits. DNA sequences were analyzed by Genewiz. Coelenterazine (CTZ) was purchased from Gold Biotechnology. Diphenylterazine (DTZ), pyridyl diphenylterazine (8pyDTZ), and Furimazine (FRZ) were purchased from MedChemExpress. All other coelenterazine analogs (bis-CTZ: bisdeoxycoelenterazine; f-CTZ: f-Coelenterazine; e-CTZ: e-Coelenterazine-F; PP-CTZ: methoxy e-Coelenterazine; v-CTZ: v-Coelenterazine. All other chemicals were purchased from Sigma-Aldrich or Fisher Scientific and used without further purification. To identify the molecular mass of each protein, intact mass spectra were obtained via reverse-phase LC/MS on an Agilent 6230B TOF on an AdvanceBio RP-Desalting column and subsequently deconvoluted by Bioconfirm software using a […] algorithm. AKTA pure M with UNICORN 6.3.2 Workstation control (GE Healthcare) coupled with a Superdex™ 75 Increase 10/300 GL column was used for size exclusion chromatography. DNA and protein concentrations were determined by a NanoDrop™ small-volume 8 channel UV/vis spectrometer. CD spectra and CD melting experiments were performed by the default setting on a J-1500 Circular Dichroism Spectropolarimeter (Jasco). All luminescence measurements were acquired by a Biotek Synergy Neo2T™ Multi-Mode Plate Reader. To convert relative arbitrary unit (RLU) to the number of photons, Neo2 plate reader was calibrated by determining the chemiluminescence of luminol with known quantum yield in the presence of horseradish peroxidase and hydrogen peroxide in K2CO3 aqueous solution as previously described^45. SDS PAGE and luminescence images were captured by a Bio-Rad ChemiDocT™ XRS+. Images were analyzed using the Fiji image analysis software.
(§3) Lemo21(DE3) strain was used for transformation with the pET29b+ plasmid encoding the gene of interest. Transformed cells were grown for 12 h in TB medium supplemented with kanamycin. Cells were inoculated at 1:50 ratio in 100 mL fresh TB medium, grown at 37° C. for 4 h, and then induced by IPTG for an additional 18 h at 16° C. Cells were harvested by centrifugation at 4,000 g for 10 min and resuspended in 30 mL lysis buffer (20 mM Tris-HCl pH 8.0, 300 mM NaCl, 30 mM imidazole, and Pierce™ Protease Inhibitor Tablets). Cell resuspensions were lysed by sonication for 5 min (10 s per cycle). Lysates were clarified by centrifugation at 24,000 g at 12° C. for 40 min and pre-equilibrated with 1 mL of Ni-NTA nickel agarose at 4° C. for 1 h. The resin was washed twice with 10 mL wash buffer and then eluted in 1 mL elution buffer (20 mM Tris-HCl pH 8.0, 300 mM NaCl, 300 mM imidazole). The eluted proteins were purified by size exclusion chromatography in PBS. Fractions were collected based on A280 trace, snap-frozen in liquid nitrogen, and stored at −80° C.,
(§4) To create libraries of each single amino acid substitution at residues 13, 14, 17, 18, 35, 37, 38, 49, 52, 53, 56, 60, 65, 81, 83, 94, 96, 98, 100, 110, and 112, forward oligos mixture with degenerate codons (NDT, VHG, and TGG=1:1:0.1 ratio) and an overlapped reverse oligo were used to amplify the plasmid of LuxSit. The resulting PCR products were circularized by Gibson Assembly protocol and were subsequently used to transform ElectroMAX™ DH10B Cells. The cells were plated on 150 mm×15 mm LB agar plates supplemented with carbenicillin and L-arabinose, incubated at 37° C. overnight, and left at 4° C. for another 24 h. As described in the screening of luciferase libraries, colony-based screening by spraying DTZ solution was used to identify active colonies. […]. […]

[5] = system: LuxSit (de novo designed luciferase, SEQ ID NO:1) variant A96M; test: Michaelis-Menten kinetics of LuxSit A96M with DTZ; conditions: substrate DTZ; mean (95% CI), n = 3; Tris pH 8.0
From the text: as §1

[6] = system: LuxSit (de novo designed luciferase, parent, 60R/96A/98H/110M; SEQ ID NO:1); test: Michaelis-Menten kinetics of LuxSit (parent) with DTZ; conditions: substrate DTZ; mean (95% CI), n = 3; Tris pH 8.0
From the text: as §1

[7] = system: LuxSit (de novo designed luciferase, SEQ ID NO:1) variant M110C; test: Michaelis-Menten kinetics of LuxSit M110C with DTZ; conditions: substrate DTZ; mean (95% CI), n = 3; Tris pH 8.0
From the text: as §1

[8] = system: LuxSit-i (de novo designed luciferase; LuxSit variant R60S/A96L/M110V, 60S/96L/98H/110V; SEQ ID NO:2); test: Michaelis-Menten kinetics of LuxSit-i with DTZ; conditions: substrate DTZ; for Km / Vmax: Tris pH 8.0
From the text: as §2, §3, §4

[9] = system: LuxSit (de novo designed luciferase, SEQ ID NO:1) variant H98N; test: Michaelis-Menten kinetics of LuxSit H98N with DTZ; conditions: substrate DTZ; mean (95% CI), n = 3; Tris pH 8.0
From the text: as §1

O=c1c(Cc2ccccc2)nc2c(-c3ccccc3)[nH]c(-c3ccccc3)cn1-2 [DTZ, Diphenylterazine]
Km [1]: 12.6 µM | Vmax [1]: 0.19(0.17-0.21) ×10^−2 photon s^−1 molecule^−1 | Km [2]: 17.5 µM | Vmax [2]: 1.3(1.1-1.5) ×10^−2 photon s^−1 molecule^−1 | Km [3]: 45.2 µM | Vmax [3]: 0.57(0.44-0.8) ×10^−2 photon s^−1 molecule^−1 | apparent Michaelis constant KM ([4]; in words (FIG. 3a)): low μM range | Km ([4]; 100 nM enzyme, Table 3): 8.9 µM | Vmax ([4]; 100 nM enzyme, Table 3): 0.20 photon s^−1 molecule^−1 | kcat ([4]; kcat=Vmax/LQY, Table 3): 1.8 s⁻¹ | Km ([4]; mean (95% CI), n = 3, Table 4): 8.9 µM | Vmax ([4]; mean (95% CI), n = 3, Table 4): 19.7(17.9-21.9) ×10^−2 photon s^−1 molecule^−1 | Km [5]: 4.8 µM | Vmax [5]: 6.0(5.3-6.9) ×10^−2 photon s^−1 molecule^−1 | Km [6]: 18.3 µM | Vmax [6]: 0.32(0.29-0.37) ×10^−2 photon s^−1 molecule^−1 | Km [7]: 67.5 µM | Vmax [7]: 0.4(0.3-0.6) ×10^−2 photon s^−1 molecule^−1 | apparent Michaelis constant KM ([8]; in words (FIG. 3a)): low μM range | Km ([8]; 100 nM enzyme, Table 3): 2.5 µM | Vmax ([8]; 100 nM enzyme, Table 3): 0.36 photon s^−1 molecule^−1 | kcat ([8]; kcat=Vmax/LQY, Table 3): 2.5 s⁻¹ | Km ([8]; mean (95% CI), n = 3, Table 4): 2.5 µM | Vmax ([8]; mean (95% CI), n = 3, Table 4): 36.1(33.7-38.6) ×10^−2 photon s^−1 molecule^−1 | Km [9]: 29.3 µM | Vmax [9]: 0.17(0.15-0.2) ×10^−2 photon s^−1 molecule^−1

— patent US20250075190A1, “DE NOVO DESIGNED LUCIFERASE” (UNIVERSITY OF WASHINGTON, priority 2022, published 2025)
